US6617438B1, “Oligoribonucleotides with enzymatic activity” (Sirna Therapeutics, Inc., priority 1997, dated 2003)
Several values for one entry are separate records, joined by “and”; a condition that tells them apart may be missing. Identical values can stand only once. Like-named read-outs stand apart in the source and are kept apart here. Marks after values point to notes of the source that are not given here.

Assays:
[1] = molecular target: T1, Bacteriophage T7 RNA polymerase (wild type) (Escherichia phage T7, UniProt P00573); assay: biochemical; type: biochemical; details: for activity at 2000 µM: read-out: % ribo control
T1 construct: purchased Boehringer Mannheim
T1 sequence (P00573 whole entry): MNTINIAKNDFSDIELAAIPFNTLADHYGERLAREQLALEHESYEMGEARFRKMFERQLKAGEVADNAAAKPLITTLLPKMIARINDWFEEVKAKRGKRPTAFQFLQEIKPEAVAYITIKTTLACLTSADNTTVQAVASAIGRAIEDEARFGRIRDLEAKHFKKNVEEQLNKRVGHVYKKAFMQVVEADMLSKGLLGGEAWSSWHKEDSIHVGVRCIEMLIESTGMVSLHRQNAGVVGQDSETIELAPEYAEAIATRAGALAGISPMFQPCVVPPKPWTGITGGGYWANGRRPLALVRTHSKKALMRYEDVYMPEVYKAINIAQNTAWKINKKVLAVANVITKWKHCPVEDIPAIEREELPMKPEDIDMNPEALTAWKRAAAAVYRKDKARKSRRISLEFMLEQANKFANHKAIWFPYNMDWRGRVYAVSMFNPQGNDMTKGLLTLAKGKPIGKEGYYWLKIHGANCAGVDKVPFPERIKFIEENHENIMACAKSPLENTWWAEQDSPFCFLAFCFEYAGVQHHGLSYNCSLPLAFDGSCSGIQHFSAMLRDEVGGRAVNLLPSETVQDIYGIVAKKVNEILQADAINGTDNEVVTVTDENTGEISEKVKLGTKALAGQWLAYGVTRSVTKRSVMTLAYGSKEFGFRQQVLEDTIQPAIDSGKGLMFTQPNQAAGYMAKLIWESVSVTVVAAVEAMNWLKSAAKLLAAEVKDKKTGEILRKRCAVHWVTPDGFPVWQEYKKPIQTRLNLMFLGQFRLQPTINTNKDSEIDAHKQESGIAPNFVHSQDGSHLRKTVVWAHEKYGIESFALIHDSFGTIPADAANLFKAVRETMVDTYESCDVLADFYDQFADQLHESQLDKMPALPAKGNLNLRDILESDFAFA
Procedure: Bacteriophage T7 RNA polymerase was purchased from Boehringer Mannheim at 0.4 U/μL concentration. Applicant used the commercial buffer supplied with the enzyme and 0.2 μCi alpha-^32P NTP in a 50 μL reaction with nucleotides triphosphates at 2 mM each. The template was a double-stranded PCR fragment, which was used in previous screens. Reactions were carried out at 37° C. for 1 hour. Ten μL of the sample was run on a 7.5% analytical PAGE and bands were quantitated using a Phosphorlmager.

[2] = molecular target: T2, Y639F mutant T7 polymerase (Escherichia phage T7, UniProt P00573, Y639F); type: biochemical, bacteriophage T7
T2 sequence (P00573 whole entry Y639F, looked up): as the sequence (P00573 whole entry) above, with Y639F counted along it

[3] = molecular target: T2, Y639F mutant T7 polymerase; type: biochemical, bacteriophage T7; remark: listed apart in the source
[4] = system: BT-474 xenografts; details: combination study, dose not given; cited from earlier work
[5] = high-risk patients; cited from earlier work
[6] = COND# 1: 20 mM MgCl2, 10% methanol, 1 mM LiCl, no PEG, 25° C.
[7] = COND# 2: 20 mM MgCl2, 10% methanol, 1 mM LiCl, 4% PEG, 25° C.
[8] = COND# 3: 12 mM MgCl2, 4% PEG, 25° C.
[9] = COND# 4: 12 mM MgCl2, 10% methanol, 4% PEG, 25° C.
[10] = COND# 5: 12 mM MgCl2, 1 mM LiCl, 4% PEG, 25° C.
[11] = COND# 6: 12 mM MgCl2, 10% methanol, 1 mM LiCl, 4% PEG, 25° C.
[12] = COND# 7: 20 mM MgCl2, 10% methanol, 1 mM LiCl, no PEG, 37° C.
[13] = COND# 8: 20 mM MgCl2, 10% methanol, 1 mM LiCl, 4% PEG, 37° C.
[14] = COND# 9: 12 mM MgCl2, 4% PEG, 37° C.
[15] = COND# 10: 12 mM MgCl2, 10% methanol, 4% PEG, 37° C.
[16] = COND# 11: 12 mM MgCl2, 1 mM LiCl, 4% PEG, 37° C.
[17] = COND# 12: 12 mM MgCl2, 10% methanol, 1 mM LiCl, 4% PEG, 37° C.
[18] = wild type T7 polymerase, commercial buffer, 37° C., 1 hour, label GTP
[19] = together with 2′-his-UTP, rATP and rGTP, condition number 9
[20] = together with rUTP, condition number 9
[21] = together with 2′-his-UTP and 2′-amino-CTP, same buffer (condition 9)
[22] = together with rUTP and rCTP, same buffer (condition 9)
[23] = wild type T7 polymerase, commercial buffer, 37° C., 1 hour, label ATP

## 2′-F—GTP
[1]
  % ribo control: 4%

## 2′-dGTP
[1]
  % ribo control: 3%

## 2′-deoxy-2′-amino-CTP [2′-NH2—CTP]
[2]; [6]
  full-length transcript, percent compared to all-rNTP control: 11%
[2]; [7]
  full-length transcript, percent compared to all-rNTP control: 37%
[2]; [8]
  full-length transcript, percent compared to all-rNTP control: 45%
[2]; [9]
  full-length transcript, percent compared to all-rNTP control: 64%
[2]; [10]
  full-length transcript, percent compared to all-rNTP control: 25%
[2]; [11]
  full-length transcript, percent compared to all-rNTP control: 70%
[2]; [12]
  full-length transcript, percent compared to all-rNTP control: 26%
[2]; [13]
  full-length transcript, percent compared to all-rNTP control: 54%
[2]; [14]
  full-length transcript, percent compared to all-rNTP control: 292%
[2]; [15]
  full-length transcript, percent compared to all-rNTP control: 264%
[2]; [16]
  full-length transcript, percent compared to all-rNTP control: 109%
[2]; [17]
  full-length transcript, percent compared to all-rNTP control: 244%
[1]; [18]
  % ribo control: 59%
[3]; [19]
  percentage of incorporation compared to the all-RNA control: 9.5* %
[3]; [20]
  percentage of incorporation compared to the all-RNA control: 232.7%

## 2′-deoxy-2′-amino-UTP [2′-NH2—UTP]
[1]
  % ribo control: 39%

## Nc1ncnc2c1ncn2[C@@H]1O[C@H](COP(=O)(O)OP(=O)(O)OP(=O)(O)O)[C@@H](O)[C@H]1F [2′-F—ATP, 2′-deoxy-2′-fluoro-adenine triphosphate]
[2]; [6]
  full-length transcript, percent compared to all-rNTP control: 227%
[2]; [7]
  full-length transcript, percent compared to all-rNTP control: 252%
[2]; [8]
  full-length transcript, percent compared to all-rNTP control: 98%
[2]; [9]
  full-length transcript, percent compared to all-rNTP control: 103%
[2]; [10]
  full-length transcript, percent compared to all-rNTP control: 100%
[2]; [11]
  full-length transcript, percent compared to all-rNTP control: 116%
[2]; [12]
  full-length transcript, percent compared to all-rNTP control: 288%
[2]; [13]
  full-length transcript, percent compared to all-rNTP control: 278%
[2]; [14]
  full-length transcript, percent compared to all-rNTP control: 471%
[2]; [15]
  full-length transcript, percent compared to all-rNTP control: 198%
[2]; [16]
  full-length transcript, percent compared to all-rNTP control: 317%
[2]; [17]
  full-length transcript, percent compared to all-rNTP control: 185%
[3]; [21]
  percentage of incorporation compared to the all-RNA control: 4%
[3]; [22]
  percentage of incorporation compared to the all-RNA control: 222.6%

## O=c1ccn([C@@H]2O[C@H](COP(=O)(O)OP(=O)(O)OP(=O)(O)O)[C@@H](O)[C@H]2F)c(=O)[nH]1 [2′-F—UTP, 2′-deoxy-2′-fluoro-uridine triphosphate]
[2]
  full-length transcript, percent compared to all-rNTP control: 100%
[1]; 1 h
  activity at 2000 µM: 100%

## Nc1nc(N)c2ncn([C@@H]3O[C@H](CO)C(O)C3N)c2n1 (stereo partly drawn) [2′-NH2—DAP, 2′-deoxy-2′amino-2,6-diaminopurine riboside]
[2]
  full-length transcript, percent compared to all-rNTP control: 0% and 1%
[3]
  percentage of incorporation compared to the all-RNA control: 8.9* % and 9.6%

## CSCO[C@@H]1[C@H](O)[C@@H](COP(=O)(O)OP(=O)(O)OP(=O)(O)O)O[C@H]1n1ccc(=O)[nH]c1=O [2′-O-MTM-UTP, 2′-O-methylthiomethyl-uridine-5 ′-triphosphate]
[1]; [23]
  activity at 2000 µM: 64%

## CSCO[C@@H]1[C@H](O)[C@@H](CO)O[C@H]1n1cnc2c(N)ncnc21 [2′-O—MTM—ATP, 2′-O-methylthiomethyl adenosine]
[2]
  full-length transcript, percent compared to all-rNTP control: 0% and 1%
[1]; [18]
  activity at 2000 µM: 1%

## CSCO[C@@H]1[C@H](O)[C@@H](CO)O[C@H]1n1ccc(N)nc1=O [2′-O—MTM—CTP, 2′-O-methylthiomethyl cytidine]
[2]
  full-length transcript, percent compared to all-rNTP control: 2% and 4% and 5% and 3% and 1%
[3]
  percentage of incorporation compared to the all-RNA control: 5.9% and 5.1%

## CSCO[C@@H]1[C@H](O)[C@@H](CO)O[C@H]1n1cnc2c(=O)[nH]c(N)nc21 [2′-O—MTM—GTP, 2′-O-methylthiomethyl guanosine]
[2]
  full-length transcript, percent compared to all-rNTP control: 6% and 3% and 1% and 4% and 2% and 0%
[1]; [23]
  activity at 2000 µM: 3%

## CO[C@@H]1[C@H](O)[C@@H](COP(=O)(O)OP(=O)(O)OP(=O)(O)O)O[C@H]1n1cnc2c(N)ncnc21 [2′-O—Me—ATP]
[2]
  full-length transcript, percent compared to all-rNTP control: 0% and 2% and 1%

## COC1C(O)[C@@H](CO)O[C@H]1n1cnc2c(N)nc(N)nc21 (stereo partly drawn) [2′-O—Me—DAP, 2′-O-methyl-2,6-diaminopurine riboside]
[2]
  full-length transcript, percent compared to all-rNTP control: 4% and 5% and 3%
[3]
  percentage of incorporation compared to the all-RNA control: 1.9% and 5.7%

## CO[C@@H]1[C@H](O)[C@@H](COP(=O)(O)OP(=O)(O)OP(=O)(O)O)O[C@H]1n1cnc2c(=O)[nH]c(N)nc21 [2′-O—Me—GTP, 2′-O-methyl-guanosine-5′-Triphosphate]
[2]
  full-length transcript, percent compared to all-rNTP control: 4% and 5% and 3% and 2%
[1]; 1 h
  activity at 2000 µM: 3%

## NO[C@@H]1[C@H](O)[C@@H](CO)O[C@H]1n1ccc(=O)[nH]c1=O [2′-O—NH2—UTP, 2′-O-amino-uridine]
[1]; [23]
  activity at 2000 µM: 1%

## Nc1ncnc2c1ncn2[C@H]1C[C@H](O)[C@@H](COP(=O)(O)OP(=O)(O)OP(=O)(O)O)O1 [2′-dATP]
[2]; [6]
  full-length transcript, percent compared to all-rNTP control: 9%
[2]; [7]
  full-length transcript, percent compared to all-rNTP control: 3%
[2]; [8]
  full-length transcript, percent compared to all-rNTP control: 19%
[2]; [9]
  full-length transcript, percent compared to all-rNTP control: 23%
[2]; [10]
  full-length transcript, percent compared to all-rNTP control: 9%
[2]; [11]
  full-length transcript, percent compared to all-rNTP control: 24%
[2]; [12]
  full-length transcript, percent compared to all-rNTP control: 6%
[2]; [13]
  full-length transcript, percent compared to all-rNTP control: 3%
[2]; [14]
  full-length transcript, percent compared to all-rNTP control: 84%
[2]; [15]
  full-length transcript, percent compared to all-rNTP control: 70%
[2]; [16]
  full-length transcript, percent compared to all-rNTP control: 28%
[2]; [17]
  full-length transcript, percent compared to all-rNTP control: 51%
[3]; [21]
  percentage of incorporation compared to the all-RNA control: 2.3%
[3]; [22]
  percentage of incorporation compared to the all-RNA control: 146.3%

## NCCC(=O)N[C@@H]1[C@H](O)[C@@H](CO)O[C@H]1n1ccc(=O)[nH]c1=O [2′-β NH2-ala-UTP, 2′-(N-β-alanyl)amino-2′-deoxy uridine]
[1]; [23]
  activity at 2000 µM: 3%

## COC1C(O)[C@@H](CO)O[C@H]1n1cc(CCCN)c(=O)[nH]c1=O (stereo partly drawn) [5-(3-aminopropyl)-2′-O-methyl uridine]
[2]
  full-length transcript, percent compared to all-rNTP control: 4% and 10%
[1]; [18]
  activity at 2000 µM: 0%

## Nc1ncnc2c1ncn2[C@@H]1O[C@H](COP(=O)(O)OP(=O)(O)OP(=O)(O)O)[C@@H](O)[C@H]1O [ATP]
[3]; [21]
  percentage of incorporation compared to the all-RNA control: 15.7%
[3]; [22]
  percentage of incorporation compared to the all-RNA control: 100%

## Nc1ccn([C@@H]2O[C@H](COP(=O)(O)OP(=O)(O)OP(=O)(O)O)[C@@H](O)[C@H]2O)c(=O)n1 [CTP]
[3]; [19]
  percentage of incorporation compared to the all-RNA control: 16.1%
[3]; [20]
  percentage of incorporation compared to the all-RNA control: 100%

## CC(N)C(=O)NC1C(O)[C@@H](CO)O[C@H]1n1ccc(=O)[nH]c1=O (stereo partly drawn) [ala-2′-NH2—UTP, 2′-(N-alanyl) amino-2′-deoxy-uridine]
[1]; [23]
  activity at 2000 µM: 2%

## CC(=O)O[C@H]1C(=O)[C@@]2(C)[C@H]([C@H](OC(=O)c3ccccc3)[C@]3(O)C[C@H](OC(=O)[C@H](O)[C@@H](NC(=O)c4ccccc4)c4ccccc4)C(C)=C1C3(C)C)[C@]1(OC(C)=O)CO[C@@H]1C[C@@H]2O [paclitaxel]
[4]
  inhibition of tumor growth: 35%

## NC(Cc1ccccc1)C(=O)NC1C(O)[C@@H](CO)O[C@H]1n1ccc(=O)[nH]c1=O (stereo partly drawn) [phe-2′-NH2—UTP, 2′-(N-phenylalanyl)amino-2′-deoxy-uridine]
[2]
  full-length transcript, percent compared to all-rNTP control: 8% and 6% and 10% and 12% and 7% and 4%
[1]; [23]
  activity at 2000 µM: 1%

## CC/C(=C(\c1ccccc1)c1ccc(OCCN(C)C)cc1)c1ccccc1 [tamoxifen]
[5]
  reduction of breast cancer incidence: 49%
